Here are results for five compounds from ChEMBL document CHEMBL1201862, “PubChem BioAssay data set” (2004).

Some test systems named below: EKVX; LOX IMVI; OVCAR-4; TK-10; LXFL 529; SK-MEL-2; COLO 205; SF-295; MOLT-4; NCI-H226; HOP-92; HCT-15; UO-31; NCI-H522; UACC-257; KM12.
Holding throughout (assay): DTP human tumour cell line panel, 48 h

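Step 1: Grow cells in 96-well plates. Step 2: Expose to compound for 48 hours at 5 concentrations. Step 3: Interpolate endpoints linearly; if unreached, use highest concentration. Here, GI50 denotes the concentration required for 50% inhibition of growth.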 Active and inactive are the calls of the source. Cut-off read from the data, not from the text of the source: active = GI50 up to about 1.1 µM and inactive = higher. A value given as a limit tells only on which side of the number the result lay.

As usually defined, the GI50 is the concentration that inhibits growth by half. `CCOP(=O)(OCC)/C(C#N)=C/c1ccco1`: the GI50 with EKVX, in the experiment with LOX IMVI, in the experiment on OVCAR-4, in the experiment on TK-10, with LXFL 529 and in the experiment on SK-MEL-2 was > 100 µM (inactive) throughout. Besides, the GI50 is > 100 µM (inactive) in the experiment on COLO 205; > 100 µM (inactive) with SF-295; > 100 µM (inactive) with MOLT-4; > 100 µM (inactive) with NCI-H226; > 100 µM (inactive) with HOP-92; over 100 µM in the experiment with HCT-15. Further, the GI50 in the experiment on UO-31, in the experiment with NCI-H522, in the experiment with UACC-257 and in the experiment on KM12 was > 100 µM (inactive) each time.
With `C/C(=N/NC(N)=S)C(CN1CCOCC1)C(C1=C(O)c2ccccc2OC1)c1ccccc1` (stereo not given), the GI50 in the experiment on EKVX, in the experiment on LOX IMVI, with OVCAR-4, with TK-10, with LXFL 529 and in the experiment with SK-MEL-2 was > 100 µM (inactive) throughout. In addition, the GI50 in the experiment with COLO 205 was 68.9 µM (inactive); in the experiment on SF-295, > 100 µM (inactive); with MOLT-4, 39 µM (inactive); in the experiment on NCI-H226, > 100 µM (inactive); in the experiment with HOP-92, 71.3 µM (inactive); in the experiment with UO-31, > 100 µM (inactive). Also, the GI50 in the experiment with NCI-H522, in the experiment on UACC-257 and in the experiment with KM12 was > 100 µM (inactive) in each case.
For the compound `COC(=O)NN=C1C(C)(C)C(=O)C1(C)C`, the GI50 in the experiment on EKVX, in the experiment on LOX IMVI, in the experiment with TK-10, with LXFL 529, in the experiment with SK-MEL-2 and in the experiment on COLO 205 was > 100 µM (inactive) in each case. In addition, the GI50 in the experiment on SF-295, in the experiment with MOLT-4, in the experiment with NCI-H226, with HOP-92, with UO-31 and in the experiment with NCI-H522 was > 100 µM (inactive) throughout. Also, the GI50 with UACC-257 and with KM12 was > 100 µM (inactive) each time.
For the compound `O=C1C2Nc3ccccc3SC2C(=O)N1c1ccccc1C(F)(F)F` (stereo not given), the GI50 in the experiment with EKVX was 54.8 µM (inactive); with LOX IMVI it was 40.2 µM (inactive); in the experiment on OVCAR-4 it was 43.1 µM (inactive); in the experiment with TK-10, 42.1 µM (inactive); in the experiment on LXFL 529, 33.7 µM (inactive); with SK-MEL-2, 27.2 µM (inactive). For the same compound, the GI50 in the experiment with SF-295 was 14.9 µM (inactive); in the experiment with MOLT-4, 23.2 µM (inactive); in the experiment on NCI-H226 it was 43.1 µM (inactive); in the experiment with HOP-92, 25 µM (inactive); in the experiment with HCT-15 it was 15.9 µM; in the experiment on UO-31, 38.2 µM (inactive). Besides, the GI50 with NCI-H522 is 15.3 µM (inactive); in the experiment on UACC-257, > 100 µM (inactive); in the experiment on KM12 it was 10.1 µM (inactive).
On to `O=c1c2ccccc2nc(-c2ccccc2)n1NC(=S)Nc1cccc(Cl)c1`, for which the GI50 with LOX IMVI was > 100 µM (inactive); with OVCAR-4 it was > 100 µM (inactive); in the experiment on TK-10 it was 36.6 µM (inactive); with LXFL 529 it was > 100 µM (inactive); in the experiment on SK-MEL-2 it was > 100 µM (inactive); with COLO 205, > 100 µM (inactive). For the same compound, the GI50 is 64.4 µM (inactive) in the experiment on SF-295; > 100 µM (inactive) with MOLT-4; > 100 µM (inactive) with NCI-H226; 31.8 µM (inactive) with HOP-92; over 100 µM in the experiment with HCT-15; 89.1 µM (inactive) with UO-31. The GI50 in the experiment on NCI-H522 is 46.7 µM (inactive); with UACC-257, > 100 µM (inactive); in the experiment with KM12, > 100 µM (inactive).
